Measured values as given in ChEMBL document CHEMBL1201862, “PubChem BioAssay data set” (2004).
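Five concentrations, 48 hours, 96-well plates. Here, GI50 denotes the concentration required for 50% inhibition of growth.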 Activity calls are given as the source filed them. Cut-off read from the data, not from the text of the source: active = GI50 up to about 1.1 µM and inactive = higher.

Legend:
Test in all cases: NCI tumour cell line growth inhibition, 48 h
HCT-116 = test system: HCT-116
HOP-92 = test system: HOP-92
SN12C = test system: SN12C
SW-620 = test system: SW-620
EKVX = test system: EKVX
CAKI-1 = test system: CAKI-1
K562 = test system: K562
KM12 = test system: KM12
OVCAR-4 = test system: OVCAR-4
OVCAR-5 = test system: OVCAR-5
LOX IMVI = test system: LOX IMVI
COLO 205 = test system: COLO 205
NCI-H23 = test system: NCI-H23
A549 = test system: A549
NCI-H460 = test system: NCI-H460
Malme-3M = test system: Malme-3M
A498 = test system: A498
UACC-257 = test system: UACC-257

Measured: GI50

COc1ccc(C2=Cc3nc2c(-c2ccccc2)c2ccc([nH]2)c(-c2ccccc2)c2nc(c(-c4ccccc4)c4ccc([nH]4)c3-c3ccccc3)C=C2)cc1
inactive: HCT-116 > 100 µM | HOP-92 35.2 µM | SN12C > 100 µM | SW-620 > 100 µM | EKVX > 100 µM | CAKI-1 > 100 µM | K562 > 100 µM | KM12 > 100 µM | OVCAR-4 > 100 µM | OVCAR-5 > 100 µM | LOX IMVI > 100 µM | COLO 205 > 100 µM | NCI-H23 > 100 µM | A549 > 100 µM | NCI-H460 > 100 µM | Malme-3M > 100 µM | A498 > 100 µM

Cc1c(Cl)ccc2[s+]snc12
inactive: HCT-116 22.7 µM | SN12C 24.3 µM | SW-620 27.7 µM | EKVX > 100 µM | CAKI-1 37.9 µM | K562 22.6 µM | KM12 43.1 µM | UACC-257 30.3 µM | OVCAR-4 42.3 µM | OVCAR-5 > 100 µM | LOX IMVI 23.7 µM | COLO 205 > 100 µM | NCI-H23 52.5 µM | A549 38.6 µM | NCI-H460 55 µM | Malme-3M 49.8 µM | A498 68.2 µM

N#CC(c1ccc(Cl)cc1)c1cccc(Cl)n1 (centres undefined)
inactive: HOP-92 30.2 µM | SN12C 54.3 µM | SW-620 > 100 µM | EKVX 39 µM | CAKI-1 25.3 µM | K562 58.9 µM | KM12 78.3 µM | UACC-257 60.7 µM | OVCAR-4 40 µM | OVCAR-5 > 100 µM | COLO 205 67.1 µM | NCI-H23 43.3 µM | A549 31 µM | NCI-H460 > 100 µM | Malme-3M 74.5 µM | A498 74.8 µM

CC(C)(C)OC(=O)N1CCCC1=O
inactive: HCT-116 > 10 µM | HOP-92 > 10 µM | SN12C > 10 µM | SW-620 > 10 µM | EKVX > 10 µM | K562 > 10 µM | KM12 > 10 µM | UACC-257 > 10 µM | OVCAR-5 > 10 µM | LOX IMVI > 10 µM | NCI-H23 > 10 µM | A549 > 10 µM | NCI-H460 > 10 µM | Malme-3M > 10 µM | A498 > 10 µM

CN1C/C(=C\c2ccccc2)C2=NN(C(N)=S)[C@H](c3ccccc3)[C@@H]2C1
inactive: HCT-116 37.3 µM | HOP-92 75.3 µM | SN12C > 100 µM | SW-620 > 100 µM | EKVX > 100 µM | K562 36 µM | KM12 54 µM | UACC-257 59.2 µM | OVCAR-4 56.6 µM | OVCAR-5 > 100 µM | LOX IMVI > 100 µM | COLO 205 38.5 µM | NCI-H23 56.4 µM | A549 52 µM | NCI-H460 50.5 µM | Malme-3M 36.6 µM | A498 > 100 µM

CCOC(=O)C1=C(C)NC(C)=C(C(=O)OCC)C1c1ccc(C)cc1
inactive: HCT-116 36.1 µM | HOP-92 13.1 µM | SN12C 22.1 µM | SW-620 45.8 µM | EKVX 42.7 µM | CAKI-1 48.6 µM | K562 31 µM | KM12 46.7 µM | UACC-257 44.9 µM | OVCAR-4 54.3 µM | OVCAR-5 41.6 µM | LOX IMVI 31.8 µM | COLO 205 > 10 µM | NCI-H23 34.5 µM | A549 47.2 µM | NCI-H460 22.9 µM | A498 40.6 µM
